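Cultured in 96-well plates, cells were exposed to test compound for 48 hours across five concentrations. TGI marks complete inhibition of growth.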

For orientation: TGI means the concentration giving total growth inhibition. A high value points to less potent growth arrest.

Among the test systems are NCI/ADR-RES ovarian; CCRF-CEM leukemia; OVCAR-3 ovarian; NCI-H23 lung; MCF7 breast; MDA-MB-231 breast; OVCAR-5 ovarian; RPMI-8226 leukemia; NCI-H522 lung; HCT-116 colon; HS 578T breast; OVCAR-8 ovarian; HOP-92 NSCLC; HCT-15 colon; KM12 colon; BT-549 breast; T-47D breast; SN12C renal; HL-60(TB) leukemia; SF-295 CNS.
Common to all, as to assay: DTP human tumour cell line panel, 48 h

Regarding `CSc1ccc2c(cc1=O)[C@@H](NC(=O)c1ccc([N+](=O)[O-])cc1)CCc1cc(O)c(O)c(O)c1-2`, the TGI was 53.6 µM with NCI/ADR-RES ovarian; > 100 µM with CCRF-CEM leukemia; 31.1 µM in the experiment with OVCAR-3 ovarian; > 100 µM with NCI-H23 lung; > 100 µM in the experiment on MCF7 breast; 81.2 µM in the experiment with MDA-MB-231 breast. Further, the TGI with OVCAR-5 ovarian was > 100 µM; in the experiment with RPMI-8226 leukemia, > 100 µM; with NCI-H522 lung it was > 100 µM; with HCT-116 colon, > 100 µM; with HS 578T breast, 62 µM; in the experiment with OVCAR-8 ovarian, > 100 µM. Also, the TGI in the experiment on HOP-92 NSCLC is > 100 µM; in the experiment on HCT-15 colon, 85.1 µM; in the experiment on KM12 colon, 37.4 µM; with BT-549 breast, > 100 µM; in the experiment with T-47D breast, > 100 µM; with SN12C renal it was 62.5 µM. Besides, the figures for the total growth inhibition concentration (TGI) in the experiment with HL-60(TB) leukemia and in the experiment with SF-295 CNS were 57.5 µM and > 100 µM, respectively.
Consider `CCOC(=O)N1N(c2ccccc2)C(=O)C1(c1ccccc1)c1ccccc1`, for which the TGI with NCI/ADR-RES ovarian, with CCRF-CEM leukemia, with OVCAR-3 ovarian, with NCI-H23 lung, with MCF7 breast and with MDA-MB-231 breast was > 100 µM each time. Moreover, the TGI with OVCAR-5 ovarian is > 100 µM; in the experiment on RPMI-8226 leukemia, 83.5 µM; in the experiment with NCI-H522 lung, > 100 µM; with HCT-116 colon it was > 100 µM; in the experiment on HS 578T breast, > 100 µM; in the experiment on OVCAR-8 ovarian it was > 100 µM. Besides, the TGI in the experiment on HOP-92 NSCLC, in the experiment with HCT-15 colon, in the experiment with KM12 colon, with BT-549 breast, in the experiment with T-47D breast and in the experiment with SN12C renal was > 100 µM in each case. Moreover, the TGI with HL-60(TB) leukemia and in the experiment on SF-295 CNS was > 100 µM throughout.
Consider `NC(=O)C1CCCN1C(=O)N(CCCl)N=O` (stereo not given), for which the TGI with NCI/ADR-RES ovarian, in the experiment with CCRF-CEM leukemia, in the experiment on OVCAR-3 ovarian, with NCI-H23 lung, in the experiment on MCF7 breast and in the experiment with MDA-MB-231 breast was > 100 µM throughout. Besides, the concentration for total growth inhibition (TGI) in the experiment on OVCAR-5 ovarian, in the experiment on RPMI-8226 leukemia, in the experiment with NCI-H522 lung, with HCT-116 colon, in the experiment on HS 578T breast and in the experiment with OVCAR-8 ovarian was > 100 µM in each case. Moreover, the TGI with HOP-92 NSCLC, in the experiment on HCT-15 colon, with KM12 colon, in the experiment with BT-549 breast, in the experiment on T-47D breast and with SN12C renal was > 100 µM in each case. The TGI in the experiment with HL-60(TB) leukemia and with SF-295 CNS was > 100 µM in each case.
As for `O=S(=O)(/N=C(\NO)Nc1ccc(Cl)cc1)C1CC=C(c2ccon2)S1` (stereo not given), the TGI in the experiment on NCI/ADR-RES ovarian is > 100 µM; with CCRF-CEM leukemia, 72.1 µM; with OVCAR-3 ovarian, > 100 µM; in the experiment with NCI-H23 lung, > 100 µM; in the experiment with MCF7 breast it was > 100 µM; with MDA-MB-231 breast, > 100 µM. In addition, the TGI with OVCAR-5 ovarian is > 100 µM; in the experiment with RPMI-8226 leukemia, > 50.3 µM; in the experiment with NCI-H522 lung, 12.8 µM; with HCT-116 colon, > 100 µM; with HS 578T breast it was > 66.3 µM; in the experiment with OVCAR-8 ovarian, > 100 µM. For the same molecule, the TGI with HOP-92 NSCLC was > 85.5 µM; in the experiment with HCT-15 colon it was > 100 µM; in the experiment with KM12 colon, > 100 µM; in the experiment on BT-549 breast, > 63 µM; with T-47D breast, > 100 µM; in the experiment with SN12C renal, 98.9 µM. Besides, the concentration for total growth inhibition (TGI) was 35.6 µM in the experiment with HL-60(TB) leukemia and > 100 µM in the experiment on SF-295 CNS.
For the molecule `O=C1Nc2ccccc2/C1=C\c1c(Cl)nc2n1CCS2`, the concentration for total growth inhibition (TGI) in the experiment with NCI/ADR-RES ovarian was 67.5 µM; in the experiment with CCRF-CEM leukemia, > 100 µM; in the experiment with OVCAR-3 ovarian, 68.7 µM; with NCI-H23 lung it was 65.8 µM; in the experiment with MCF7 breast it was 60.6 µM; in the experiment with MDA-MB-231 breast it was 53.2 µM. Moreover, the TGI with OVCAR-5 ovarian was > 100 µM; with RPMI-8226 leukemia it was > 100 µM; in the experiment on NCI-H522 lung it was 40.5 µM; in the experiment on HCT-116 colon, 68 µM; in the experiment with HS 578T breast, 40.1 µM; with OVCAR-8 ovarian it was > 100 µM. In addition, the total growth inhibition concentration (TGI) was > 100 µM in the experiment with HOP-92 NSCLC; 64.5 µM in the experiment with HCT-15 colon; > 100 µM with KM12 colon; 52.8 µM with BT-549 breast; 91 µM in the experiment with T-47D breast; > 100 µM in the experiment on SN12C renal. Besides, the concentration for total growth inhibition (TGI) in the experiment with HL-60(TB) leukemia is 48.8 µM; in the experiment on SF-295 CNS, 99.6 µM.
Consider `CC1CC(C(=O)OC2OC(COC3OC(CO)C(OC4OC(C)C(O)C(O)C4O)C(O)C3O)C(O)C(O)C2O)C2CCC3(C)C(=CCC4(C)C3CCC3C(C)(CO)C(O)C(O)CC34C)C2C1C` (stereo not given), for which the total growth inhibition concentration (TGI) with NCI/ADR-RES ovarian is > 100 µM; in the experiment on CCRF-CEM leukemia it was 52.2 µM; in the experiment with OVCAR-3 ovarian, 60.4 µM; in the experiment on NCI-H23 lung, 33.3 µM; in the experiment on MCF7 breast, 53 µM; with MDA-MB-231 breast, 34 µM. Also, the TGI came to 66.7 µM with OVCAR-5 ovarian; 49.2 µM in the experiment on RPMI-8226 leukemia; 30.1 µM with NCI-H522 lung; 41.7 µM in the experiment on HCT-116 colon; 35.5 µM in the experiment with HS 578T breast; 32.3 µM in the experiment on OVCAR-8 ovarian. In addition, the concentration for total growth inhibition (TGI) is 34.6 µM in the experiment on HOP-92 NSCLC; > 100 µM in the experiment on HCT-15 colon; 33.4 µM with KM12 colon; 32.3 µM with BT-549 breast; 35 µM with T-47D breast; 37 µM in the experiment on SN12C renal. The concentration for total growth inhibition (TGI) is 45.8 µM with HL-60(TB) leukemia and 82.8 µM in the experiment with SF-295 CNS.
For `CC(=O)OC1OC(c2ccoc2)C[C@@]12C1CCC3O[C@]3(C)[C@]1(C)C[C@H](OC(C)=O)[C@H]2C` (stereo not given in full), the concentration for total growth inhibition (TGI) with NCI/ADR-RES ovarian, in the experiment with CCRF-CEM leukemia, in the experiment with OVCAR-3 ovarian, with NCI-H23 lung, in the experiment on MCF7 breast and with MDA-MB-231 breast was > 75 µM in each case. In addition, the TGI in the experiment on OVCAR-5 ovarian, in the experiment with RPMI-8226 leukemia, in the experiment with NCI-H522 lung, in the experiment with HCT-116 colon, in the experiment with HS 578T breast and in the experiment with OVCAR-8 ovarian was > 75 µM throughout. Moreover, the TGI in the experiment on HOP-92 NSCLC, with HCT-15 colon, in the experiment with KM12 colon, with BT-549 breast, in the experiment with T-47D breast and in the experiment with SN12C renal was > 75 µM throughout. In addition, the TGI in the experiment with HL-60(TB) leukemia and with SF-295 CNS was > 75 µM throughout.
For `O[C@H]1[C@H](O)[C@@H](Cn2nnc(-c3ccccc3)c2-c2ccccc2)OCO[C@@H]1Cn1nnc(-c2ccccc2)c1-c1ccccc1`, the TGI is > 42.4 µM in the experiment on NCI/ADR-RES ovarian; > 34.5 µM in the experiment with CCRF-CEM leukemia; 9.14 µM with OVCAR-3 ovarian; 26.2 µM in the experiment with NCI-H23 lung; 11.5 µM with MCF7 breast; 16.4 µM with MDA-MB-231 breast. Further, the concentration for total growth inhibition (TGI) with OVCAR-5 ovarian was 6.49 µM; in the experiment on RPMI-8226 leukemia, 5.79 µM; in the experiment with NCI-H522 lung, 21.5 µM; with HCT-116 colon it was 9.63 µM; in the experiment with HS 578T breast it was 33.2 µM; in the experiment with OVCAR-8 ovarian, 18.1 µM. The total growth inhibition concentration (TGI) worked out at 8.23 µM in the experiment with HOP-92 NSCLC; 11.8 µM in the experiment on HCT-15 colon; 11.6 µM with KM12 colon; 23.7 µM in the experiment on BT-549 breast; 31.6 µM with T-47D breast; 7.55 µM with SN12C renal. For the same molecule, the TGI is > 24 µM with HL-60(TB) leukemia and 13 µM in the experiment on SF-295 CNS.
Regarding `CC(=O)c1ccccc1NS(=O)(=O)c1ccc2nc(C)n(NS(=O)(=O)c3ccccc3C(C)=O)c(=O)c2c1`, the TGI with NCI/ADR-RES ovarian, in the experiment on CCRF-CEM leukemia, with OVCAR-3 ovarian, with NCI-H23 lung, with MCF7 breast and in the experiment on MDA-MB-231 breast was > 100 µM in each case. Besides, the TGI in the experiment on OVCAR-5 ovarian, in the experiment with RPMI-8226 leukemia, in the experiment on NCI-H522 lung, in the experiment with HCT-116 colon, with HS 578T breast and with OVCAR-8 ovarian was > 100 µM each time. The total growth inhibition concentration (TGI) in the experiment with HOP-92 NSCLC, in the experiment on HCT-15 colon, with KM12 colon, with BT-549 breast, in the experiment on T-47D breast and with SN12C renal was > 100 µM each time. Besides, the total growth inhibition concentration (TGI) in the experiment with HL-60(TB) leukemia and in the experiment on SF-295 CNS was > 100 µM throughout.
As for `COc1cc(Nc2nc3ccccc3nc2C(C)C)cc(OC)c1OC`, the concentration for total growth inhibition (TGI) in the experiment with NCI/ADR-RES ovarian, in the experiment on CCRF-CEM leukemia, with OVCAR-3 ovarian, with NCI-H23 lung, with MCF7 breast and in the experiment on MDA-MB-231 breast was > 100 µM each time. For the same molecule, the total growth inhibition concentration (TGI) in the experiment with OVCAR-5 ovarian, in the experiment on RPMI-8226 leukemia, in the experiment on NCI-H522 lung, with HCT-116 colon, in the experiment on HS 578T breast and in the experiment on OVCAR-8 ovarian was > 100 µM each time. Moreover, the TGI with HOP-92 NSCLC, in the experiment with HCT-15 colon, with KM12 colon, with BT-549 breast, in the experiment on T-47D breast and in the experiment on SN12C renal was > 100 µM in each case. Further, the TGI with HL-60(TB) leukemia and with SF-295 CNS was > 100 µM throughout.
